How the values were obtained:
Assay type in all cases: binding
Conditions in all cases: Compound Concentration 10 µM
[1] = target: T1, panel of 442 kinases (Homo sapiens, UniProt Q9BWU1)
T1 construct: purchased KINOMEscan
Source text: (§1) We assessed the selectivity of members of this scaffold using the KINOMEscan methodology across a near comprehensive panel of 442 kinases [[18,27]].

[2] = target: T2, panel of 442 kinases (Homo sapiens, UniProt P53355)
T2 construct: purchased KINOMEscan
Source text: as §1

[3] = target: T3, panel of 442 kinases (Homo sapiens, UniProt P36888, D835Y)
T3 construct: purchased KINOMEscan
T3 sequence (P36888 27-993 D835Y): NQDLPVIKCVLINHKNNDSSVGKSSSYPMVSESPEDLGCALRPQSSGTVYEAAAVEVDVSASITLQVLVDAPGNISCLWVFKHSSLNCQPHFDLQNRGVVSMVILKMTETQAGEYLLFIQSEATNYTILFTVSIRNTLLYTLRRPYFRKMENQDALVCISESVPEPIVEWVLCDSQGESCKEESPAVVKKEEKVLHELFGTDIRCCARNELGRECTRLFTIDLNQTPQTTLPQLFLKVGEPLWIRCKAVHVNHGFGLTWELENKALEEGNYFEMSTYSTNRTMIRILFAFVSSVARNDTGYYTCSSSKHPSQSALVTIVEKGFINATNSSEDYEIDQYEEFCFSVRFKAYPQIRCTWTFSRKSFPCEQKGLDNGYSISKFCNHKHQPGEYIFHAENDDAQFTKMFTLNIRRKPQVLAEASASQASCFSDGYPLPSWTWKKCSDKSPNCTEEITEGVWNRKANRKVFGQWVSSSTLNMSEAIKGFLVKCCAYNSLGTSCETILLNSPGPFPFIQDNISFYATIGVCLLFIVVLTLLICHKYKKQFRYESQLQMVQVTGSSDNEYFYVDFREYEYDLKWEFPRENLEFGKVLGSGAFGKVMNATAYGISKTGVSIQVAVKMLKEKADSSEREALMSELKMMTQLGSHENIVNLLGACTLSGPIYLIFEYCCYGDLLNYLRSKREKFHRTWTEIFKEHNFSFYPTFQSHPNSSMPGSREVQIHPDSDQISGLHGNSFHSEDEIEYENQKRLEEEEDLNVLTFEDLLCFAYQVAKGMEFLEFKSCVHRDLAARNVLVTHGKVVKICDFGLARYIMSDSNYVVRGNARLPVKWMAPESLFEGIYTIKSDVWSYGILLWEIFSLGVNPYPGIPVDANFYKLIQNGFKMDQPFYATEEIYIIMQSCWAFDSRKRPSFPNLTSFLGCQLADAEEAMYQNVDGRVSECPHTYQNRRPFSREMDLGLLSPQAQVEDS
Source text: as §1

T1 sequence (Q9BWU1 whole entry): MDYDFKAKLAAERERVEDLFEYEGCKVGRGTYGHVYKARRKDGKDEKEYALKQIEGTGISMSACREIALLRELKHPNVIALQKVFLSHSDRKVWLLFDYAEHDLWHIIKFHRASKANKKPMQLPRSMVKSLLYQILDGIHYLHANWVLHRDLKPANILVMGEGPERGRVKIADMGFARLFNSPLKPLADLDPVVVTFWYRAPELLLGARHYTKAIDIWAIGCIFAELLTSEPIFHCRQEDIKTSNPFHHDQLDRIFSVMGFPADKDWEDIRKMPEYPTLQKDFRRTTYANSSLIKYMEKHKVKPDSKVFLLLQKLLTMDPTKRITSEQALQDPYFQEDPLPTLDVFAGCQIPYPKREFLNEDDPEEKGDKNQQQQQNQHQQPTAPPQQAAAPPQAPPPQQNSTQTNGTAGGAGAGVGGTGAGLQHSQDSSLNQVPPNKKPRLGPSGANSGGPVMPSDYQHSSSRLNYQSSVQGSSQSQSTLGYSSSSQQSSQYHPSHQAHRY
T2 sequence (P53355 whole entry): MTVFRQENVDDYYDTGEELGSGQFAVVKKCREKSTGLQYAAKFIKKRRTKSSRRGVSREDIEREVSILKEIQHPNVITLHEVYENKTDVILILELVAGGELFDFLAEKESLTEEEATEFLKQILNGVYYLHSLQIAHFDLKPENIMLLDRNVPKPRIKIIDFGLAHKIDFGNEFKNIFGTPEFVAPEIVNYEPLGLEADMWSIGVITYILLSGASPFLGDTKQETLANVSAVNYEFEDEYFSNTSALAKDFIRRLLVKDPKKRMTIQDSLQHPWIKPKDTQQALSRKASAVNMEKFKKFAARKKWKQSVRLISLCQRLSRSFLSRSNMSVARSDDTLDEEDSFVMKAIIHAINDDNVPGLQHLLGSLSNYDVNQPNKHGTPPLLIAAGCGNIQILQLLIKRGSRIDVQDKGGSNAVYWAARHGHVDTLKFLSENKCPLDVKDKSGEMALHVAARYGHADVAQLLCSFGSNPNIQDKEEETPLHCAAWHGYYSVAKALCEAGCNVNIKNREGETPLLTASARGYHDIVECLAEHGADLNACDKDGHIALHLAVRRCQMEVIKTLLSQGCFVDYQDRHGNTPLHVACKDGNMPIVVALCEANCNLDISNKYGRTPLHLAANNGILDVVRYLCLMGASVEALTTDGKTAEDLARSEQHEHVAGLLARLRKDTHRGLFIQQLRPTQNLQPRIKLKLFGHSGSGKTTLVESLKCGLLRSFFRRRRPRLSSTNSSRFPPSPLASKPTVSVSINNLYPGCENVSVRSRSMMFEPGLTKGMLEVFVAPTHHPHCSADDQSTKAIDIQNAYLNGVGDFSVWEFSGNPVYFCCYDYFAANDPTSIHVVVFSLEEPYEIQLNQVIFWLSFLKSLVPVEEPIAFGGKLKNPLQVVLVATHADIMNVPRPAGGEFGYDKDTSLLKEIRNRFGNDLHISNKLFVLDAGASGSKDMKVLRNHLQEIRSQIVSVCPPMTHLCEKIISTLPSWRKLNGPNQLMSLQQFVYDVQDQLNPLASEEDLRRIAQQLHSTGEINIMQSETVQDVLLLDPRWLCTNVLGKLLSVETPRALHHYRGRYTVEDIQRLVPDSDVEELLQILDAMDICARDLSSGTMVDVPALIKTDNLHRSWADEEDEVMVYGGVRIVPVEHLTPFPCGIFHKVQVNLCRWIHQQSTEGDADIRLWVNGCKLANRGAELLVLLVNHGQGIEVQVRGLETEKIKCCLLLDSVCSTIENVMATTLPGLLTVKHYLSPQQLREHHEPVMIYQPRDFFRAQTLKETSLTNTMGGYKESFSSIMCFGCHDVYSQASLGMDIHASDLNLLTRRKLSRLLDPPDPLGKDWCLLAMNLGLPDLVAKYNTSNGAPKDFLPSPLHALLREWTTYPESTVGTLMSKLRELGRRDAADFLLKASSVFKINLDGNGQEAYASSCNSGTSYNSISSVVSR

Structure (SMILES) | KINOMEscan: CDK11 [1] | KINOMEscan: DAPK1 [2] | KINOMEscan: FLT3(D835Y) [3]
COc1cc(C(=O)N2CCC(N3CCN(C)CC3)CC2)ccc1Nc1ncc2c(n1)N(C)c1ccccc1C(=O)N2C [15 (LRRK2-IN-1)] | 100 | 73 | 100
COc1cc(C(=O)N2CCC(N3CCN(C)CC3)CC2)ccc1Nc1ncc2c(n1)N1CCc3cccc(c31)C(=O)N2C [Compound 24] | 96 | 19 | 
COc1cc(C(=O)N2CCC(N3CCN(C)CC3)CC2)ccc1Nc1ncc2c(n1)N(C1CCCC1)c1ccccc1C(=O)N2C [Compound 25, 11-cyclopentyl-2-((2-methoxy-4-(4-(4-methylpiperazin-1-yl)piperidine-1-carbonyl)phenyl)amino)-5-methyl-5H-benzo[e]pyrimido[5,4-b][1,4]diazepin-6(11H)-one] | 87 | 77 | 100
CCOc1cc(C(=O)N2CCC(N3CCN(C)CC3)CC2)ccc1Nc1ncc2c(n1)N(C1CCCC1)c1ccccc1C(=O)N2C [Compound 26] | 100 | 100 | 100

From paper PMC3914206
